Experimental data reported in the NIST ThermoML archive (doi:10.1021/je0505164).
Numbers after ± are expanded uncertainties.

Conditions: Liquid; for mass density: 298.15 K, 101.33 kPa; for Normal boiling temperature: Ebulliometric method (Recirculating still)

Structure (SMILES) | mass density | Normal boiling temperature
CCO [ethanol] | 785.1 ± 0.3 kg/m3 | 78.31 ± 0.2 °C
CCCO [propan-1-ol] | 799.6 ± 0.3 kg/m3 | 97.06 ± 0.2 °C
CC(C)O [propan-2-ol] | 780.8 ± 0.3 kg/m3 | 82.24 ± 0.2 °C
